Reference: patent US12612343B2, “PSMA binder and use thereof” (priority 2020, dated 2026)
Where “and” joins values, the source holds several entries; their conditions need not be identical. Equal entries are not always repeated. Entries after “also recorded” stand apart in the source; their conditions may differ. Where two headings read alike, the source gives them in different places.

How the values were obtained:
PSMA protein = PSMA protein (Homo sapiens, UniProt Q04609); test: Affinity assay by Surface Plasmon Resonance (SPR); settings: binding to PSMA protein
Sequence of PSMA protein (Q04609 whole entry): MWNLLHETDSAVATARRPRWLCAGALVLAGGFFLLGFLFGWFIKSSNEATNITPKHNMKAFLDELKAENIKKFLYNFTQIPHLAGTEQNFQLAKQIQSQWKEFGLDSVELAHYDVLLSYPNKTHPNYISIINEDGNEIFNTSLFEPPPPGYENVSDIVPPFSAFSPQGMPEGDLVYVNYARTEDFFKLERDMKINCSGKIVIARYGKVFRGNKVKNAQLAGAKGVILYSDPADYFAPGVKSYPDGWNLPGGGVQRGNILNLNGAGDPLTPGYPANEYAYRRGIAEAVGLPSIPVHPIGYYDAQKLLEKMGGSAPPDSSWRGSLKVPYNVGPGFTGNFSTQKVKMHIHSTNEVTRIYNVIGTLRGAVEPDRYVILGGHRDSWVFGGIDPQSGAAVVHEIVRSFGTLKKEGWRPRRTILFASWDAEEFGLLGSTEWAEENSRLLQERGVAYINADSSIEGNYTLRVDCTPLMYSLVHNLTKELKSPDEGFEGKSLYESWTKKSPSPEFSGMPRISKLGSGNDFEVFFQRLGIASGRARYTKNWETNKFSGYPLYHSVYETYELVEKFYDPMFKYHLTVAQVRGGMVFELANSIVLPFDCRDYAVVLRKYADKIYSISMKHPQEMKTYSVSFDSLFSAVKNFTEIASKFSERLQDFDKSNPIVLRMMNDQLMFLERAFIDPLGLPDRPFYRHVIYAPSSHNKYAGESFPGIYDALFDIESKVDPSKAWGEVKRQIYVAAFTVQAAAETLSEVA
Procedure: The binding capacity of HYNIC-PSMA-XL-2 and HYNIC-PSMA-XL-3 to PSMA protein was determined by Surface Plasmon Resonance (SPR).

[1] = system: biochemical recurrent prostate cancer; test: Comparison of SPECT/CT and PET/CT in 10 patients with biochemical recurrent prostate cancer; type: in vivo, human; settings: for patients found to have local recurrence in the prostatic fossa / positive rate of imaging: 5 patients per group; for positive rate of imaging: preliminary statistics; for Number of tumors / With or without local recurrence: per patient (No. 1-10), biochemical recurrence after radical prostatectomy
Procedure: 10 patients with biochemical recurrent prostate cancer were randomly divided into two groups. The basic clinical information of the two groups was similar: they both have previously received radical prostatectomy, and the current PSA of them were 1-3 ng/ml, and the GS score of them were 8-9. One group underwent ^68Ga-PSMA11 PET/CT, and the other group underwent ^99mTc-PSMA-XL SPECT/CT.

[2] = system: prostate tumors versus bladder; test: Comparative imaging study with existing PSMA imaging agents in 15 prostate cancer patients; type: in vivo, human; settings: 3 groups, SPECT/CT or PET/CT (FIG. 19)
Source text: 15 patients with prostate cancer were randomly divided into 3 groups. One group underwent ^99mTc-HYNIC-ALUG SPECT/CT, one group underwent ^68Ga-PSMA11 PET/CT, and one group underwent ^99mTc-HYNIC-PSMA-XL3 SPECT/CT.

[3] = system: Human prostate cancer LNCaP cells (PSMA positive); test: LNCaP cell uptake experiment; type: cell-based; settings: for specific binding to PSMA-positive LNCaP cells: conclusion from the uptake and blocking experiment
Procedure: Human prostate cancer LNCaP cells (PSMA positive) were cultured in a RPMI 1640 medium containing 10% fetal bovine serum and 1% penicillin-streptomycin double antibody under 37° C. with 5% CO2 and saturated humidity in the incubator. When the cells reach log phase, they were digested with 0.25% trypsin, then the cells were collected and washed twice with PBS, after that a cell suspension was obtained for further culture. A fixed number of cell lines (1.0×10^6 cells/1 ml) was placed in each well of a 24-well cell culture dish, and the experiment was performed after the logarithmic growth phase.
The cells were divided into an experimental group and a blocking group. […] 6 groups of experiments were carried out in parallel. After 1 h, the culture medium was aspirated, placed in a γ-counting tube, and then washed three times with PBS. The washing solution and the culture medium were combined for storage. Then the cells were trypsinized, collected in another counting tube, and the percentage of cell uptake was calculated by a γ-counting tube.

[4] = system: prostate cancer tumors (PSMA expression); test: SPECT/CT imaging of 10 patients with prostate cancer, with immunohistochemistry of surgical specimens; type: in vivo, human
Procedure: The patients were injected with about 740MBq of ^99mTc-HYNIC-PSMA-XL-3, and 2 hours later, they were examined by a Discovery 670 (GE, USA) scanner. Taking the right obturator internus muscle as the background, the target-to-background ratio (TBR) was calculated, and the results were shown in FIG. 15. […] Four of the five patients with primary prostate cancer underwent radical prostatectomy, and one of the three patients with biochemical recurrence prostate cancer underwent salvage lymph node dissection. Without knowing the results of ^99mTc-HYNIC-PSMA-XL-3 SPECT/CT, pathology specialists performed pathological analysis of samples. Representative sections were stained by immunohistochemistry method, deparaffinized in xylene and rehydrated in graded ethanol series. Antigen retrieval was performed with the aid of autoclave and retrieval buffer (Target Retrieval Solution, Dako). Mouse monoclonal antibody against PSMA (clone 3E6, Dako) was diluted at a 1:100 dilution and incubated overnight at 4° C., followed by immunodetection using the Histostain-Plus Detection Kit (Invitrogen). Stained sections were scanned using Nanozoomer 2.0-[…] (Hamamatsu Photonics) to generate digital overall images.

[5] = upper bound calculated from ka, as kd was beyond the detection limit, read-out: KD value (SPR method)

NNc1ccc(C(=O)NC(CCC(=O)O)C(=O)NC(CCC(=O)O)C(=O)NCc2ccc(C(=O)NC(Cc3ccc4ccccc4c3)C(=O)NCCCCC(NC(=O)NC(CCC(=O)O)C(=O)O)C(=O)O)cc2)cn1 (stereo not drawn) [HYNIC-PSMA-XL-2, Glu-Urea-Lys-2Nal-AMB-Glu-Glu-HYNIC]
Kd (PSMA protein; [5]): < 0.00643 nM

NNc1ccc(C(=O)NC(CCC(=O)O)C(=O)NCc2ccc(C(=O)NC(Cc3ccc4ccccc4c3)C(=O)NCCCCC(NC(=O)NC(CCC(=O)O)C(=O)O)C(=O)O)cc2)cn1 (stereo not drawn) [HYNIC-PSMA-XL-3, Glu-Urea-Lys-2Nal-AMB-Glu-HYNIC]
Kd (PSMA protein; [5]): < 0.00486 nM

O=C(O)CCc1ccc(O)c(CN(CCN(CC(=O)O)Cc2cc(CCC(=O)NCCCCCC(=O)NCCCC[C@H](NC(=O)N[C@@H](CCC(=O)O)C(=O)O)C(=O)O)ccc2O)CC(=O)O)c1 [PSMA11, reference compound]
Kd (PSMA protein; reference PSMA inhibitors, same method): 1.25 nM

O=C([O-])CN(CCN(CC(=O)[O-])Cc1cc(CCC(=O)NCCCCCC(=O)NCCCC[C@H](NC(=O)N[C@@H](CCC(=O)O)C(=O)O)C(=O)O)ccc1[O-])Cc1cc(CCC(=O)O)ccc1[O-].[68Ga+3].[OH3+] [^68Ga-PSMA11, reference compound]
patients found to have local recurrence in the prostatic fossa [1]: 1 | positive rate of imaging [1]: 80% | Number of tumors [1]: 1 (2×) and 4 and 0 and 2 | With or without local recurrence [1]: no (4×) and yes | distribution of radioactivity in the bladder [2]: higher radiophysiological distribution; also recorded: high physiological distributions in the bladder

O=C(O)CCC(NC(=O)NC(CCCCNC(=O)C(Cc1ccc2ccccc2c1)NC(=O)c1ccc(CNC(=O)C(CCC(=O)O)NC(=O)C(CCC(=O)O)NC(=O)c2ccc(N[N]=[99Tc]345([Cl])[O]C(=O)C[N]3CC[N]4CC(=O)[O]5)nc2)cc1)C(=O)O)C(=O)O (stereo not drawn) [^99mTc-HYNIC/EDDA-PSMA-XL-2]
specific binding to PSMA-positive LNCaP cells [3]: highly specifically bind

O=C(O)CCC(NC(=O)NC(CCCCNC(=O)C(Cc1ccc2ccccc2c1)NC(=O)c1ccc(CNC(=O)C(CCC(=O)O)NC(=O)c2ccc(N[N]=[99Tc]3([Cl])[O]C(=O)CNCCNCC(=O)[O]3)nc2)cc1)C(=O)O)C(=O)O (stereo not drawn) [^99mTc-HYNIC/EDDA-PSMA-XL-3]
percentage of cell uptake, Experimental group ([3]; LNCaP cells, 0.5 μCi per well, 1 h): 14.01 ± 1.11% | percentage of cell uptake, Blocking group ([3]; LNCaP cells, 1 h, excess 2-PMPA (1000-fold molar equivalent) added half an hour in advance): 2.66 ± 0.51% | patients found to have local recurrence in the prostatic fossa [1]: 1 | positive rate of imaging [1]: 80% | Number of tumors ([1]; listed as 99mTc-PSMA-XL): 3 and 1 and 2 and 0 and 4 | With or without local recurrence ([1]; listed as 99mTc-PSMA-XL): yes and no (4×)

O=C(O)CCC(NC(=O)NC(CCCCNC(=O)C(Cc1ccc2ccccc2c1)NC(=O)c1ccc(CNC(=O)C(CCC(=O)O)NC(=O)c2ccc(N[N]=[99Tc]345([Cl])[O]C(=O)C[N]3CC[N]4CC(=O)[O]5)nc2)cc1)C(=O)O)C(=O)O (stereo not drawn) [^99mTc-HYNIC/EDDA-PSMA-XL-3]
specific binding to PSMA-positive LNCaP cells [3]: highly specifically bind | distribution of radioactivity in the bladder ([2]; listed as 99mTc-HYNIC-PSMA-XL3): very low distribution of radioactivity | distribution of radioactivity in the bladder ([2]; listed as 99mTc-HYNIC-PSMA-XL-3): less distribution of radioactivity in the bladder | consistency of SPECT/CT tumor uptake with immunohistochemical PSMA expression of surgical specimens ([4]; patients who underwent surgery, listed as 99mTc-HYNIC-PSMA-XL-3): highly consistent | distribution of radioactivity in the bladder ([4]; patients, about 740 MBq, SPECT/CT 2 hours after injection, compared with tumor uptake): low | tumor targeting ([4]; patients, about 740 MBq, SPECT/CT 2 hours after injection, metastases such as lymph nodes/bone): high
